The IC50 is the point on the concentration scale where inhibition reaches its midpoint. Read a low IC50 as greater potency. As usually defined, the EC50 is the concentration at which the effect is half-maximal. A high value points to a need for much substance.

Assay [1] addresses T1, MAPKAPK5 (Homo sapiens, UniProt Q8IW41).
T1 sequence (Q8IW41 1-471 isoform Q8IW41-2): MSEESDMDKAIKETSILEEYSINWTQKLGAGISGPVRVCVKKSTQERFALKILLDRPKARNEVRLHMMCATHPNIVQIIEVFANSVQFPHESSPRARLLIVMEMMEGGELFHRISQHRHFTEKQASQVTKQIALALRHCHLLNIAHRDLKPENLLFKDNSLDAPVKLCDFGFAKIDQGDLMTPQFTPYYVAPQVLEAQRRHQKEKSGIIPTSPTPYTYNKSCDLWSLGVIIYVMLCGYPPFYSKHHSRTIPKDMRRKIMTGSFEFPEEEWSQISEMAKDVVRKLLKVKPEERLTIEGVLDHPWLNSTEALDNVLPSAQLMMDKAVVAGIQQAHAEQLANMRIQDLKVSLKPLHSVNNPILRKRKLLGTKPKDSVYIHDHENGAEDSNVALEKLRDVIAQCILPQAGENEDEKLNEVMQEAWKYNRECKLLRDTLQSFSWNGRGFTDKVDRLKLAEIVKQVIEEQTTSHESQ
Nature of the assay: MAPKAP-K5 assay (FlashPlate kinase assay).
Protocol: MAPKAP-K5 reactions are performed in FlashPlate format using 0.1 or 0.2 μCi 33P-ATP; 0.6 μM ATP; 1 mU MAPKAP-K5; 3 μM MAPKAP-K5 peptide substrate, incubated at room temperature for 30 minutes.
The MAPKAP-K5 kinase reaction is performed in a 384 well polypropylene plate (Matrix Technologies) and then transferred to a streptavidin-coated 384 well flashplate (Perkin-Elmer).
To wells containing 2 μL test compound or standard inhibitor, 13 μL Enzyme mix or diluent are added using a Hydra (Robbins Scientific).
Reactions are started by addition of 10 μL of [2,5×] substrate cocktail using a Multidrop (Thermo-Labsystems), to give final concentrations in the assay of:
Plates are incubated at room temperature for 30 minutes.
Reactions are terminated by the addition of 25 μL EDTA (50 mM) to each well using a Micro-fill (Biotek).
Reactions are transferred to a streptavidin-coated flashplate using a Zymark robotic system. Plates are incubated for 60 minutes at room temperature.
All wells are washed 3 times with 100 μl phosphate buffered saline using a Tecan plate washer.
Radioactivity is determined by scintillation counting of the flashplate (empty wells) on a Packard TopCount.
Enzyme Mix: • Enzyme • 50 mM Tris Hcl (pH 7.5) • 0.1 mM EGTA • 2 mM DTT • 1 mg/mL BSA
Reaction Buffer: • 50 mM Tris Hcl (pH 7.5) • 0.1 mM EGTA • 10 mM Magnesium acetate • 2 mM DTT

The subject of assay [2] is MMP1 expression by activated primary synovial fibroblasts. Nature of the assay: 'MMP assay': MMP1 expression by complex trigger activated synovial fibroblasts (MMP1 ELISA). The assay is classed as cell-based. The settings on record: Homo sapiens, Fibroblast; Table 3; RASFs, complex trigger, 48 hrs, MMP1 ELISA.
Assay [3] concerns TNFα release by human PBMCs. Nature of the assay: Cytokine release by LPS stimulated human PBMCs (TNFα ELISA). The format is cell-based. To be noted: PBMC, 24 h, Table 5, LPS 1 μg/mL. As for the experimental part: For the assay PBMCs are seeded at 2.5E6 cells/mL in 160 μL in 96-well plates (Nunc). Serial dilution of the test compounds are made first in DMSO (Sigma) and then diluted 50-fold in M199 medium (Gibco) containing 1% heat-inactivated FBS. Compounds are further 1/10 diluted in the assay plates to obtain final DMSO concentration of 0.2%. Cells are preincubated with the compounds for 1 hr at 37° C., 5% CO2. Then, cells are stimulated with LPS (Escherichia coli serotype 026:B6, Cat. No. L2654, Sigma) that is added in a volume of 20 μL to a final concentration of 1 μg/mL and cells are further cultured for 24 hr. The plates are centrifuged and the supernatant is collected and stored at −80° C. until analysis of appropriate dilutions in ELISAs.
After 4 hr incubation at RT, blocking buffer is removed and plates are washed once with PBST (1×PBS with 0.05% Tween-20 (Sigma)). Then, 40 μL of sample is transferred to the ELISA plates and plates are incubated at 4° C. […] After 2 h of incubation at RT, plates are washed as described above and 35 μL/well of a 1/2000 dilution of streptavidin-HRP conjugate (Cat. No. SNN2004, Biosource) in buffer D is added. After 45 min, plates are washed as described above and incubated for 5 min with 50 μL/well BM Chemiluminescence ELISA Substrate POD (Roche). Readout is performed on the Luminoscan Ascent Luminometer (Labsystems) with an integration time of 100 msec delivering raw data (RLU: relative luminescence units). The following controls are included in the experiments, a maximal signal control, in which the cells are activated by LPS but only the 0.2% DMSO vehicle (and thus no compound) is added. […] A minimal signal control is also included in these experiments. Here, cells are not triggered. […] Where compounds are tested at 8 concentrations (1/3 serial dilution), EC50-values can be calculated by curve fitting of the means of the PIN data achieved for a compound at each test concentration.
Background: In an ELISA, binding on a coated surface is turned into a signal by an enzyme label.

`NC(=O)c1ccc(-c2cnc(Nc3ccc(OCCN4CCOCC4)cc3)c3ncnn23)s1` [Compound 22, 5-(8-(4-(2-Morpholinoethoxy)phenylamino)-[1,2,4]triazolo[1,5-a]pyrazin-5-yl)thiophene-2-carboxamide] yielded a half-maximal inhibitory concentration (IC50) in assay [1] of 0.501 to 1 µM. Moreover, the EC50 in assay [2] and in assay [3] was > 1 µM in each case.
Regarding `c1cc(-c2cnc(Nc3ccc(N4CCOCC4)cc3)c3ncnn23)[nH]n1` [Compound 23, (4-Morpholin-4-yl-phenyl)-[5-(2H-pyrazol-3-yl)-[1,2,4]triazolo[1,5-a]pyrazin-8-yl]-amine], the IC50 in assay [1] is > 1 µM. The EC50 in assay [2] and in assay [3] was > 1 µM throughout.
Compound `C[C@@H]1CN(c2ccc(Nc3ncc(-c4csc(C(N)=O)c4)n4ncnc34)cc2)C[C@H](C)O1` [Compound 24] registered a half-inhibitory concentration (IC50) in assay [1] of 0.501 to 1 µM. For the same compound, the EC50 in assay [2] is 0.101 to 0.5 µM; in assay [3], > 1 µM.
`FC(F)(F)c1cc(Nc2ncc(-c3cn[nH]c3)n3ncnc23)ccc1N1CCOCC1` [Compound 25]: in assay [1], the IC50 was > 1 µM. Also, the EC50 in assay [2] and in assay [3] was > 1 µM each time.
Turning to `CC(C)N1CCN(c2ccc(Nc3ncc(-c4cc(F)c(C(N)=O)c(F)c4)n4ncnc34)cc2)CC1` [Compound 26], in assay [1], the IC50 was > 1 µM. Besides, the values for the concentration for a half-maximal effect (EC50) in assay [2] and in assay [3] were > 1 µM and 0.501 to 1 µM, respectively.
In the case of `NC(=O)c1cc(-c2cnc(Nc3ccc(N4CCNCC4)cc3)c3ncnn23)cs1` [Compound 27], the IC50 in assay [1] lay in the range of 0.101 to 0.5 µM. Moreover, the figures for the EC50 in assay [2] and in assay [3] were 0.501 to 1 µM and > 1 µM, respectively.
Consider `CC(C)N1CCN(c2ccc(Nc3ncc(-c4csc(C(N)=O)c4)n4ncnc34)cc2)CC1` [Compound 28, 4-(8-(4-(4-Isopropylpiperazin-1-yl)phenylamino)-[1,2,4]triazolo[1,5-a]pyrazin-5-yl)thiophene-2-carboxamide], for which the half-inhibitory concentration (IC50) in assay [1] was in the range of 0.001 to 0.1 µM. The EC50 in assay [2] was 0.501 to 1 µM; in assay [3], > 1 µM.
As for `NC(=O)c1coc(-c2cnc(Nc3ccc(N4CCOCC4)cc3)c3ncnn23)c1` [Compound 29, 5-(8-(4-Morpholinophenylamino)-[1,2,4]triazolo[1,5-a]pyrazin-5-yl)furan-3-carboxamide], the IC50 in assay [1] was > 1 µM. The EC50 in assay [2] and in assay [3] was > 1 µM throughout.
On to `CC(C)N1CCN(c2ccc(Nc3ncc(-c4cc(C(N)=O)co4)n4ncnc34)cc2)CC1` [Compound 30], for which the IC50 in assay [1] is > 1 µM. Also, the EC50 in assay [2] and in assay [3] was > 1 µM in each case.
In assay [1], `C[C@@H]1CN(c2ccc(Nc3ncc(-c4cn[nH]c4)n4ncnc34)cc2)[C@@H](C)CN1C` [Compound 31] showed an IC50 of 0.101 to 0.5 µM. Besides, the EC50 in assay [2] and in assay [3] was > 1 µM throughout.
For `C[C@@H]1CN(c2ccc(Nc3ncc(-c4csc(C(N)=O)c4)n4ncnc34)cc2)[C@@H](C)CN1C` [Compound 32], the IC50 in assay [1] fell in the range of 0.101 to 0.5 µM. Moreover, the EC50 in assay [2] and in assay [3] was 0.501 to 1 µM throughout.
Regarding `NC(=O)c1cc(-c2cnc(Nc3ccc(N4CCOCC4)cc3)c3ncnn23)co1` [Compound 34, 4-(8-(4-Morpholinophenylamino)-[1,2,4]triazolo[1,5-a]pyrazin-5-yl)furan-2-carboxamide], the IC50 in assay [1] is 0.101 to 0.5 µM. Further, the values for the EC50 in assay [2] and in assay [3] were 0.001 to 0.1 µM and > 1 µM, respectively.
On to `O=C1NCCc2cc(-c3cnc(Nc4ccc(N5CCOCC5)cc4)c4ncnn34)ccc21` [Compound 35, 6-(8-(4-Morpholinophenylamino)-[1,2,4]triazolo[1,5-a]pyrazin-5-yl)-3,4-dihydroisoquinolin-1(2H)-one], for which, in assay [1], the IC50 is > 1 µM. The EC50 in assay [2] is 0.101 to 0.5 µM; in assay [3], > 1 µM.
For the compound `CC(C)N1CCN(c2ccc(Nc3ncc(-c4ccc5c(c4)CNC5=O)n4ncnc34)cc2)CC1` [Compound 36, 5-(8-(4-(4-Isopropylpiperazin-1-yl)phenylamino)-[1,2,4]triazolo[1,5-a]pyrazin-5-yl)isoindolin-1-one], in assay [1], the IC50 is 0.001 to 0.1 µM. Besides, the EC50 in assay [2] is 0.101 to 0.5 µM; in assay [3], > 1 µM.
Turning to `OCc1cc(Nc2ncc(-c3cn[nH]c3)n3ncnc23)ccc1N1CCOCC1` [Compound 37, {5-[5-(1H-Pyrazol-4-yl)-[1,2,4]triazolo[1,5-a]pyrazin-8-ylamino]-2-morpholinophenyl}methanol], the IC50 in assay [1] was > 1 µM. Moreover, the EC50 in assay [2] was 0.501 to 1 µM; in assay [3], > 1 µM.
As to `CC(C)N1CCN(c2ccc(Nc3ncc(-c4cn[nH]c4)n4ncnc34)cc2)CC1` [Compound 38], the IC50 in assay [1] is 0.501 to 1 µM. In addition, the EC50 in assay [2] and in assay [3] was > 1 µM each time.
As for `O=C1CCc2cc(-c3cnc(Nc4ccc(N5CCOCC5)cc4)c4ncnn34)ccc2N1` [Compound 39], the IC50 in assay [1] was > 1 µM. For the same compound, the EC50 in assay [2] and in assay [3] was > 1 µM throughout.
For `c1nc2c(Nc3ccc(N4CCNCC4)cc3)ncc(-c3cn[nH]c3)n2n1` [Compound 40], the IC50 in assay [1] was 0.501 to 1 µM. Also, the EC50 in assay [2] is > 1 µM; in assay [3], 0.501 to 1 µM.
In the case of `c1nc2c(Nc3ccc(N4CCOCC4)nc3)ncc(-c3cn[nH]c3)n2n1` [Compound 41, (6-[Morpholin-4-yl]pyridin-3-yl)-[5-(1H-pyrazol-4-yl)-[1,2,4]triazolo[1,5-a]pyrazin-8-yl]amine], the IC50 in assay [1] was > 1 µM. The EC50 in assay [2] and in assay [3] was > 1 µM in each case.
Regarding `c1nc2c(Nc3ccc(N4CCN(CC5CC5)CC4)nc3)ncc(-c3cn[nH]c3)n2n1` [Compound 42, [6-(4-[Cyclopropylmethyl]piperazin-1-yl)pyridin-3-yl]-[5-(1H-pyrazol-4-yl)-[1,2,4]triazolo[1,5-a]pyrazin-8-yl]amine], the IC50 in assay [1] is > 1 µM. Moreover, the EC50 in assay [2] and in assay [3] was > 1 µM throughout.
On to `FC(F)(F)CN1CCN(c2ccc(Nc3ncc(-c4cn[nH]c4)n4ncnc34)cn2)CC1` [Compound 44, [5-(1H-Pyrazol-4-yl)-[1,2,4]triazolo[1,5-a]pyrazin-8-yl]-{6-[4-(2,2,2-trifluoroethyl)piperazin-1-yl]pyridin-3-yl}amine], for which the half-maximal inhibitory concentration (IC50) in assay [1] was > 1 µM. For the same compound, the EC50 in assay [2] and in assay [3] was > 1 µM in each case.
In the case of `FC(F)(F)CN1CCN(c2ccc(Nc3ncc(-c4cn[nH]c4)n4ncnc34)cc2)CC1` [Compound 45], the half-maximal inhibitory concentration (IC50) in assay [1] is > 1 µM. Moreover, the EC50 in assay [2] and in assay [3] was > 1 µM throughout.
For `c1nc2c(Nc3ccc(N4CCN(CC5CC5)CC4)cc3)ncc(-c3cn[nH]c3)n2n1` [Compound 46, {4-[4-(Cyclopropylmethyl)piperazin-1-yl]phenyl}-[5-(1H-pyrazol-4-yl)-[1,2,4]triazolo[1,5-a]pyrazin-8-yl]amine], in assay [1], the IC50 was > 1 µM. In addition, the EC50 in assay [2] and in assay [3] was > 1 µM each time.
On to `NC(=O)c1cc(-c2cnc(Nc3ccc(N4CCOCC4)nc3)c3ncnn23)cs1` [Compound 47, 4-[8-(6-[Morpholin-4-yl]pyridin-3-ylamino)-[1,2,4]triazolo[1,5-a]pyrazin-5-yl]thiophene-2-carboxylic acid amide], for which the IC50 in assay [1] lay in the range of 0.101 to 0.5 µM. For the same compound, the EC50 in assay [2] is 0.501 to 1 µM; in assay [3], > 1 µM.
For `c1ccc2c(-c3cnc(Nc4ccc(N5CCOCC5)cc4)c4ncnn34)csc2c1` [Compound 48, (5-Benzo[b]thiophen-3-yl-[1,2,4]triazolo[1,5-a]pyrazin-8-yl)-(4-morpholin-4-ylphenyl)amine], in assay [1], the IC50 is > 1 µM. Also, the half-maximal effective concentration (EC50) is 0.101 to 0.5 µM in assay [2] and > 1 µM in assay [3].
For `CC(C)N1CCN(c2ccc(Nc3ncc(-c4csc5ccccc45)n4ncnc34)cc2)CC1` [Compound 49], in assay [1], the half-maximal inhibitory concentration (IC50) is > 1 µM. The EC50 in assay [2] and in assay [3] was > 1 µM throughout.

The record behind these values is patent US20100298300A1, “TRIAZOLOPYRAZINE COMPOUNDS USEFUL FOR THE TREATMENT OF DEGENERATIVE & INFLAMMATORY DISEASES” (priority 2006, published 2010).
